Laboratory results from patent publication US9131677B2, “Organ preservation solution” (University Court of the University of Edinburgh, priority 2006, dated 2015).

What was measured:
[1] = test system: Human umbilical vein endothelial cells (HUVEC); assay: Endothelial cell viability assay (trypan blue exclusion); conditions: for HUVEC cell viability vs control: 37° C., absence of any oxidants (unstressed); for HUVEC cell viability vs control / HUVEC cell survival in the presence of menadione: supplemented UW
Method: Human umbilical vein endothelial cells (HUVEC) were seeded in 162 ml flasks (Dulbecco's modified Eagle's medium 37° C., 5% CO2). Cells were cultured to confluence and transferred to 6-well culture dishes containing phosphate buffered saline (control), UW without GSH, UW+GSH (3 mM), UW+GSH-MEE (3 mM) or UW+GSNO for 24 h (37° C.) in the absence of any oxidants or in the presence of a hydroxyl radical generator (menadione; 10 μM), the superoxide generating system, xanthine+xanthine oxidase (5 μM; 1 mU/ml) or the oxidant species H2O2 (100 μM). Cell viability after 24 h incubations was assessed using a standard trypan blue exclusion assay.

aortic rings = assay: Cold ischaemic storage of aortic rings in UW solutions followed by myograph reoxygenation; set-up: species or system Wistar rats; conditions: for endothelium-dependent relaxation (ACh) vs GSH-free UW: GSH 3 mM, GSHMEE 3 mM
Method: Animal care and experimental protocols were performed in accordance with the Home Office Guidance in the Operation of Animals (Scientific Procedures) Act 1986, UK. Adult male Wistar rats weighing 300-450 g were kept in a temperature-controlled environment with a 12 h light-dark cycle, and allowed free access to water and standard diet. University of Wisconsin solution was prepared according to standard protocol: Potassium lactobionate 100 mM, KH2PO4 25 mM, MgSO4 5 mM, raffinose 30 mM, adenosine 5 mM, allopurinol 1 mM, dexamethasone 16 mg/L, insulin 40 U/L, penicillin 200 000 U/L and EDTA 0.03 mM at pH 7.4. The EDTA was added in order to help protect GSNO against metal-ion catalysed decomposition. The solution was bubbled with argon gas for 1 hour to mimic hypoxia. Oxygen levels were confirmed using an oxygen electrode (Apollo 4000 integrated free radical analyser, World Precision Instruments Inc. USA). Bubbling for 30 minutes depleted >90% of oxygen in solution. Following cervical dislocation, laparotomy was performed and the aorta dissected with clearance of periaortic fat and connective tissue. Vessels were divided into 3-5 mm aortic rings with care taken not to stretch or damage the vessels. Aortic rings were subjected to cold ischaemic storage (4° C. for 1 or 48 hours) in sealed containers filled with hypoxic control (UW without GSH) solution; UW with GSH (3 mM); UW with glutathione monoethyl ester ([…]; 3 mM) or UW with S-nitrosated glutathione (GSNO; 100 μM). After storage, aortic rings were suspended between two stainless steel supports in a myograph (700MO, Danish Myo, Aarhus, Denmark) and reoxygenated in 10 ml organ baths containing Krebs buffer solution (mM): […] Resting tensions of 1.5 g were applied to all rings prior to equilibration (30 minutes). Following equilibration, all vessels were exposed to Krebs buffer containing a high concentration of potassium (60 mM) three times to assess tissue viability and to provide a reference maximum contraction for subsequent data analysis. Each response was followed by a washout. A concentration-response curve to the α1 adrenoceptor agonist, L-phenylephrine (PE; 10^-8M-3×10^-5M) was then constructed and used to identify the concentration of PE required to generate 80% maximal contraction (EC80) for subsequent vasodilator studies. Upon establishing stable contractions, cumulative concentration-response curves to the endothelium-dependent vasodilator, acetylcholine (ACh; 10^-9-10^-5M) were constructed in all preparations. Only one concentration-response curve was obtained per tissue. A further submaximal PE contraction was elicited and the NO synthase inhibitor, N^ω-nitro-L-arginine methyl ester (L-NAME) was applied to inhibit endogenous NO production and to determine the vasodilatory effect of endothelium-derived NO under basal (unstimulated) conditions. Subsequently, the NO scavenger, carboxy-PTIO (cPTIO; 1 mM), was added in order to establish the contribution of NOS-independent NO to any vasodilator tone existing under basal conditions.

[2] = Decomposition of GSNO in storage, absorbance at 339 nm; type: physicochemical
Method: The freezing point for DMSO is ˜15° C., so these samples were effectively “frozen” for the duration of the experiment, perhaps contributing to the stability of GSNO under these conditions. The apparent depression of absorbance at time zero in the DMSO sample is most likely attributable to incomplete dissolution of the material when the first measurement was taken.

[3] = after 48 h cold ischaemia, GSNO 100 μM

Row | SMILES | contraction on addition of L-NAME to precontracted tissues vs standard UW (aortic rings; after 48 h cold ischaemia) | endothelium-dependent relaxation (ACh) vs GSH-free UW (aortic rings; [3]) | HUVEC cell viability vs control ([1]; 24 h) | HUVEC cell survival in the presence of menadione ([1]; 24 h, menadione 10 μM) | also measured
1 | CC1=CC(=O)c2ccccc2C1=O [menadione] |  |  |  |  | cells surviving oxidant treatment under control conditions ([1]; 24 hr treatment, menadione 10 μM): less than 5%
2 | CCOC(=O)CNC(=O)[C@H](CS)NC(=O)CC[C@H](N)C(=O)O [GSH-MEE, glutathione monoethyl ester] | significantly lesser contraction | no significant difference | significantly reduced viability | significantly enhanced cell survival | 
3 | OO [H2O2] |  |  |  |  | effect of oxidant on HUVEC cell survival ([1]; 24 h, X/XO 5 μM, 1 mU/ml, H2O2 100 μM): substantial cell death
4 | N[C@@H](CCC(=O)N[C@@H](CSN=O)C(=O)NCC(=O)O)C(=O)O [GSNO, S-nitrosoglutathione] | significantly lesser contraction | no significant difference | not significantly different from control | ineffective | contraction on further addition of NO scavenger cPTIO vs standard UW (aortic rings; after 1 h cold ischaemia): significantly greater contraction; contraction on further addition of cPTIO vs standard UW (aortic rings; after 48 h cold ischaemia): significantly greater contraction; maximal contractions to PE vs GSH-free UW (aortic rings; [3]): significantly depressed maximal contractions; half-life at 100 µM ([2]; modified UW solution, modified UW (containing EDTA but excluding GSH), refrigerator in the dark at 4-6° C.): ~144 h; decomposition of GSNO in 100% DMSO ([2]; same time period, dark, 4-6° C., samples effectively frozen): did not show any significant decomposition
5 | N[C@@H](CCC(=O)N[C@@H](CS)C(=O)NCC(=O)O)C(=O)O [GSH, Glutathione] |  | significantly poorer endothelium-dependent relaxation | significantly reduced viability | significantly enhanced cell survival | 
